Literature values as cited in patent publication CN104546722A, “米铂脂质体和制法” (priority 2015, dated 2015).
Where two headings read alike, the source gives them in different places.

How the values were obtained:
[1] = test system: hepatocellular carcinoma patients (肝细胞癌患者)
[2] = test system: liver cancer patients (肝癌患者)
[3] = test system: rodent liver cancer cell line AH109A (鼠肝癌细胞株AH109A)
[4] = test system: hepatocellular carcinoma patients (肝细胞癌患者); conditions: human, in vivo
[5] = test system: hepatocellular carcinoma patients (肝细胞癌患者); conditions: human, in vivo; remark: listed apart in the source
[6] = after administration
[7] = test system: hepatocellular carcinoma (肝细胞癌)
[8] = not given; remark: listed apart in the source
[9] = test system: human liver cancer cell line Li-7 (人肝癌细胞株Li-7)

CCCCCCCCCCCCCC(=O)[O-].CCCCCCCCCCCCCC(=O)[O-].N[C@@H]1CCCC[C@H]1N.[Pt+2] [米铂, 顺-[(1R,2R)-1,2-环己二胺-N,N’]双十四酰氧基合铂]
TEV (disappearance of mass or 100% tumour necrosis rate) ([1]; 22/83 patients): 26.5% | hepatic vascular injury ([1]; from administration): 未发生肝血管损伤 | 2-year survival rate ([1]; human, in vivo): 75.9% | 3-year survival rate ([1]; human, in vivo): 58.4% | CR rate ([2]; 9/16 patients): 56% | tolerability ([2]; 16 patients): 耐受性好

CCCCCCCCCCCCCC(=O)[O-].CCCCCCCCCCCCCC(=O)[O-].N[C@@H]1CCCC[C@H]1N.O.[Pt+2] [米铂一水合物, (SP-4-2)-[(1R,2R)-1,2环己二氨-N,N′]二(十四酸-O)合铂一水合物]
tumour cell proliferation rate ([3]; 20 mg/mL in suspension): 明显降低 | antitumour effect ([3]; single dose of suspension): 剂量相关地抗肿瘤作用 | inhibition of cancer cell proliferation ([3]; suspension): 以剂量相关方式抑制癌细胞增殖 | 1-year survival rate [4]: 63.6% | 2-year survival rate [4]: 38.2% | 1-year survival rate [5]: 90.1% | 2-year survival rate [5]: 75.9% | 3-year survival rate [5]: 58.4% | efficacy compared with 净司他丁斯酯 [5]: 疗效相当 | safety compared with 净司他丁斯酯 [5]: 更安全 | total platinum concentration in blood [6]: 极低,可长时间维持 | total platinum mass concentration in blood (mean) (after first administration): 9.6 ng/mL | total platinum mass concentration in blood (mean) (after second administration): 12.9 ng/mL | time to disappearance of adverse reactions ([7]; almost all, after administration): 4~6 weeks | CR rate (therapeutic effect, TE) ([7]; hepatocellular carcinoma): 60% | Cmax, reduced to ([8]; about 1 year after administration): ~17% | total platinum concentration in blood (level) ([8]; after administration, (ng)): 极低,属微量且维持时间长 | tumour cell proliferation rate ([9]; 20 mg/mL in suspension): 明显降低 | antitumour effect ([9]; single dose of suspension): 剂量相关地抗肿瘤作用 | inhibition of cancer cell proliferation ([9]; suspension): 以剂量相关方式抑制癌细胞增殖
